# Measurements taken from US20260224524A1, “A PHARMACEUTICAL COMPOSITION TARGETING MUTANT P53 AND HER2” (DR DOZO LABORATORIES, priority 2023, published 2026).
# Key:
# Assay type in all cases: cell-based
# [1] = test system: Human Lung Cancer Cell Line A-549; assay: Growth inhibition (% control growth, LC50, TGI, GI50) A-549; conditions: A-549
# Experimental: The therapeutic effect of SA1 (peak 5) and SA2 (peak 4) is evaluated against human lung cancer cell line A-549 by calculating the percentage growth inhibition, drug concentration of test compound needed to inhibit cell growth by 50% (GI50) values.
# The therapeutic effect of SACC is evaluated against human lung cancer cell line A-549 by calculating the percentage growth inhibition, drug concentration of test compound needed to inhibit cell growth by 50% (GI50) values.
# [2] = test system: Human Pancreatic Cancer Cell Line Mia-Pa-Ca-2; assay: Growth inhibition (% control growth, LC50, TGI, GI50) Mia-Pa-Ca-2; conditions: Mia-Pa-Ca-2; for GI50: Homo sapiens, MIA PaCa-2; for GI50 / TGI: Molar drug concentrations calculated from graph
# Experimental: The therapeutic effect of SA1 (peak 5) and SA2 (peak 4) is evaluated against human pancreatic cancer cell line Mia-Pa-Ca-2 by calculating the percentage growth inhibition, drug concentration of test compound needed to inhibit cell growth by 50% (GI50) values.
# The therapeutic effect of SACC is evaluated against human […] cancer cell line Mia-Pa-Ca-2 by calculating the percentage growth inhibition, drug concentration of test compound needed to inhibit cell growth by 50% (GI50) values.
# [3] = test system: Human Breast Cancer Cell Line MDA-MB-231; assay: Growth inhibition (% control growth, LC50, TGI, GI50) MDA-MB-231
# Experimental: The therapeutic effect of […] (peak 5) and SA2 (peak 4) is evaluated against human […] cancer cell line MDA-MB-231 by calculating the percentage growth inhibition, drug concentration of test compound needed to inhibit cell growth by 50% (GI50) values.
# The therapeutic effect of SACC is evaluated against human […] cancer cell lines MDA-MB-231 by calculating the percentage growth inhibition, drug concentration of test compound needed to inhibit cell growth by 50% (GI50) values.
# [4] = test system: Human Breast Cancer Cell Line MDA-MB-231; assay: as above; conditions: Molar drug concentrations calculated from graph
# lung cancer cell = assay: Cell viability MTT assay of SACC fractions on lung cells; conditions: 24 h, read-out: inhibitory concentrations, lung cancer cell growth
# Experimental: The effect of SACC fractions (peak 2, peak 3, peak 4 and peak 5) on viability of lung cells was determined by MTT assay.
# Cells were seeded in 96 wells plate at a density of 1×10^4 per well in 200 μL of respective complete culture medium containing 10% FBS and 1% antibiotics. After 70% confluency, cells were treated with the respective doses (indicated in the graph) of SACC and its fraction in complete culture medium for 24 h. After incubation for a specified time at 37° C. in a humidified incubator, dye MTT (5 mg/mL in PBS; diluted in 10 mL of serum-free medium) was added to each well and incubated for 2 h, after which the plate was centrifuged at 1,000 rpm for 5 min at 4° C. After careful removal of the medium, 0.1 mL buffered DMSO was added to each well. The absorbance was recorded on a microplate reader at the wavelength of 540 nm. The effect SACC and its fraction on cell growth inhibition was assessed as percent cell viability, where vehicle-treated cells were taken as 100% viable.
smiles,measurement,setting,value
"Cc1cc(=O)cco1 (single isomer, unassigned) [SA1 (peak 5), 2-methyl-4H-pyran-4-one]",% Control Growth,"[1]; 10^−4M, Average Values",65.2%
same,% Control Growth,"[1]; 10^−4M, Experiment 1",64.0%
same,% Control Growth,"[1]; 10^−4M, Experiment 2",65.1%
same,% Control Growth,"[1]; 10^−4M, Experiment 3",66.6%
same,% Control Growth,"[1]; 10^−5M, Average Values",81.9%
same,% Control Growth,"[1]; 10^−5M, Experiment 1",86.4%
same,% Control Growth,"[1]; 10^−5M, Experiment 2",78.3%
same,% Control Growth,"[1]; 10^−5M, Experiment 3",81.1%
same,% Control Growth,"[1]; 10^−6M, Average Values",79.1%
same,% Control Growth,"[1]; 10^−6M, Experiment 1",83.6%
same,% Control Growth,"[1]; 10^−6M, Experiment 2",77.7%
same,% Control Growth,"[1]; 10^−6M, Experiment 3",75.9%
same,% Control Growth,"[1]; 10^−7M, Average Values",79.7%
same,% Control Growth,"[1]; 10^−7M, Experiment 1",80.8%
same,% Control Growth,"[1]; 10^−7M, Experiment 2",80.6%
same,% Control Growth,"[1]; 10^−7M, Experiment 3",77.6%
same,GI50,[2],0.00108 µg/mL
same,% Control Growth,"[2]; 10^−4M, Average Values",49.2%
same,% Control Growth,"[2]; 10^−4M, Experiment 1",30.0%
same,% Control Growth,"[2]; 10^−4M, Experiment 2",63.5%
same,% Control Growth,"[2]; 10^−4M, Experiment 3",54.2%
same,% Control Growth,"[2]; 10^−5M, Average Values",108.5%
same,% Control Growth,"[2]; 10^−5M, Experiment 1",97.0%
same,% Control Growth,"[2]; 10^−5M, Experiment 2",112.7%
same,% Control Growth,"[2]; 10^−5M, Experiment 3",115.9%
same,% Control Growth,"[2]; 10^−6M, Average Values",113.4%
same,% Control Growth,"[2]; 10^−6M, Experiment 1",111.0%
same,% Control Growth,"[2]; 10^−6M, Experiment 2",116.4%
same,% Control Growth,"[2]; 10^−6M, Experiment 3",112.6%
same,% Control Growth,"[2]; 10^−7M, Average Values",105.7%
same,% Control Growth,"[2]; 10^−7M, Experiment 1",108.1%
same,% Control Growth,"[2]; 10^−7M, Experiment 2",95.5%
same,% Control Growth,"[2]; 10^−7M, Experiment 3",113.5%
same,TGI,[2],0.7992 µg/mL
same,% Control Growth,"[3]; 10^−4M, Average Values",35.0%
same,% Control Growth,"[3]; 10^−4M, Experiment 1",43.7%
same,% Control Growth,"[3]; 10^−4M, Experiment 2",27.1%
same,% Control Growth,"[3]; 10^−4M, Experiment 3",34.3%
same,% Control Growth,"[3]; 10^−5M, Average Values",58.6%
same,% Control Growth,"[3]; 10^−5M, Experiment 1",75.2%
same,% Control Growth,"[3]; 10^−5M, Experiment 2",44.0%
same,% Control Growth,"[3]; 10^−5M, Experiment 3",56.4%
same,% Control Growth,"[3]; 10^−6M, Average Values",75.4%
same,% Control Growth,"[3]; 10^−6M, Experiment 1",90.3%
same,% Control Growth,"[3]; 10^−6M, Experiment 2",69.9%
same,% Control Growth,"[3]; 10^−6M, Experiment 3",66.1%
same,% Control Growth,"[3]; 10^−7M, Average Values",60.8%
same,% Control Growth,"[3]; 10^−7M, Experiment 1",75.4%
same,% Control Growth,"[3]; 10^−7M, Experiment 2",50.9%
same,% Control Growth,"[3]; 10^−7M, Experiment 3",56.0%
same,TGI,[4],4.03 µg/mL
"Cc1ccc(O)oc1=O (single isomer, unassigned) [SA2 (peak 4), 6-hydroxy-3-methyl-2H-pyran-2-one]",% Control Growth,"[1]; 10^−4M, Average Values",54.9%
same,% Control Growth,"[1]; 10^−4M, Experiment 1",54.4%
same,% Control Growth,"[1]; 10^−4M, Experiment 2",51.7%
same,% Control Growth,"[1]; 10^−4M, Experiment 3",58.6%
same,% Control Growth,"[1]; 10^−5M, Average Values",74.8%
same,% Control Growth,"[1]; 10^−5M, Experiment 1",81.5%
same,% Control Growth,"[1]; 10^−5M, Experiment 2",72.0%
same,% Control Growth,"[1]; 10^−5M, Experiment 3",70.9%
same,% Control Growth,"[1]; 10^−6M, Average Values",77.4%
same,% Control Growth,"[1]; 10^−6M, Experiment 1",74.0%
same,% Control Growth,"[1]; 10^−6M, Experiment 2",80.1%
same,% Control Growth,"[1]; 10^−6M, Experiment 3",78.2%
same,% Control Growth,"[1]; 10^−7M, Average Values",77.3%
same,% Control Growth,"[1]; 10^−7M, Experiment 1",80.0%
same,% Control Growth,"[1]; 10^−7M, Experiment 2",76.9%
same,% Control Growth,"[1]; 10^−7M, Experiment 3",74.9%
same,GI50,"[1]; Homo sapiens, A549, Molar drug concentrations calculated from graph",0.0034 µg/mL
same,GI50,[2],0.000301 µg/mL
same,% Control Growth,"[2]; 10^−4M, Average Values",40.5%
same,% Control Growth,"[2]; 10^−4M, Experiment 1",40.0%
same,% Control Growth,"[2]; 10^−4M, Experiment 2",36.6%
same,% Control Growth,"[2]; 10^−4M, Experiment 3",45.0%
same,% Control Growth,"[2]; 10^−5M, Average Values",100.5%
same,% Control Growth,"[2]; 10^−5M, Experiment 1",76.9%
same,% Control Growth,"[2]; 10^−5M, Experiment 2",116.3%
same,% Control Growth,"[2]; 10^−5M, Experiment 3",108.3%
same,% Control Growth,"[2]; 10^−6M, Average Values",112.4%
same,% Control Growth,"[2]; 10^−6M, Experiment 1",114.3%
same,% Control Growth,"[2]; 10^−6M, Experiment 2",115.6%
same,% Control Growth,"[2]; 10^−6M, Experiment 3",107.5%
same,% Control Growth,"[2]; 10^−7M, Average Values",102.1%
same,% Control Growth,"[2]; 10^−7M, Experiment 1",95.4%
same,% Control Growth,"[2]; 10^−7M, Experiment 2",111.8%
same,% Control Growth,"[2]; 10^−7M, Experiment 3",99.0%
same,TGI,[2],0.1054 µg/mL
same,IC50,lung cancer cell,1.02 µg/mL
same,% Control Growth,"[3]; 10^−4M, Average Values",27.9%
same,% Control Growth,"[3]; 10^−4M, Experiment 1",50.1%
same,% Control Growth,"[3]; 10^−4M, Experiment 2",18.1%
same,% Control Growth,"[3]; 10^−4M, Experiment 3",15.5%
same,% Control Growth,"[3]; 10^−5M, Average Values",47.2%
same,% Control Growth,"[3]; 10^−5M, Experiment 1",45.5%
same,% Control Growth,"[3]; 10^−5M, Experiment 2",42.0%
same,% Control Growth,"[3]; 10^−5M, Experiment 3",54.1%
same,% Control Growth,"[3]; 10^−6M, Average Values",62.8%
same,% Control Growth,"[3]; 10^−6M, Experiment 1",68.2%
same,% Control Growth,"[3]; 10^−6M, Experiment 2",59.7%
same,% Control Growth,"[3]; 10^−6M, Experiment 3",60.5%
same,% Control Growth,"[3]; 10^−7M, Average Values",57.0%
same,% Control Growth,"[3]; 10^−7M, Experiment 1",81.0%
same,% Control Growth,"[3]; 10^−7M, Experiment 2",42.6%
same,% Control Growth,"[3]; 10^−7M, Experiment 3",47.3%
same,GI50,"[3]; Homo sapiens, Molar drug concentrations calculated from graph",2.38 µg/mL
same,TGI,[4],0.1727 µg/mL
"O=C1CC2=CC(O)=CC(=O)C2=CO1 (single isomer, unassigned) [peak 2, 6-hydroxy-3H-isochromene-3, 8(4H)-dione]",IC50,lung cancer cell,1.04 µg/mL
"Cc1ccc2[nH]cc(C(=O)O)c2c1 (single isomer, unassigned) [peak 3, 5-methyl-1H-indole-3-carboxylic acid]",IC50,lung cancer cell,1.06 µg/mL
